Data from PubChem BioAssay (NCI).
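Growth conditions: 96-well plates. Treatment: test compound, 48 hours, 5 concentrations. Analysis: linear interpolation between bracketing concentrations; unreached endpoints set to highest concentration. GI50 marks 50% less growth. At the TGI there is no net growth.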

Legend:
Experiment in all cases: DTP human tumour cell line panel, 48 h
A549 NSCLC = tested on: A549 NSCLC
BT-549 breast = tested on: BT-549 breast
HCT-15 colon = tested on: HCT-15 colon
IGROV1 ovarian = tested on: IGROV1 ovarian
MCF7 breast = tested on: MCF7 breast
MDA-N = tested on: MDA-N
NCI-H23 lung = tested on: NCI-H23 lung
OVCAR-4 ovarian = tested on: OVCAR-4 ovarian
SK-OV-3 ovarian = tested on: SK-OV-3 ovarian
HCC-2998 colon = tested on: HCC-2998 colon

Structure (SMILES)	TGI (A549 NSCLC) [µM]	TGI (BT-549 breast) [µM]	TGI (HCT-15 colon) [µM]	TGI (IGROV1 ovarian) [µM]	TGI (MCF7 breast) [µM]	TGI (MDA-N) [µM]	TGI (NCI-H23 lung) [µM]	TGI (OVCAR-4 ovarian) [µM]	TGI (SK-OV-3 ovarian) [µM]	TGI (HCC-2998 colon) [µM]	GI50 (BT-549 breast) [µM]	GI50 (HCT-15 colon) [µM]	GI50 (IGROV1 ovarian) [µM]	GI50 (NCI-H23 lung) [µM]	GI50 (SK-OV-3 ovarian) [µM]	GI50 (A549 NSCLC) [µM]	GI50 (HCC-2998 colon) [µM]	GI50 (MCF7 breast) [µM]	GI50 (OVCAR-4 ovarian) [µM]
Cc1ccc(O)c(Cc2nc3ccccc3nc2-c2cccc(Br)c2)c1	> 100	> 100	66.9	> 100	> 100	> 100	> 100	> 100	> 100										
CC(=O)Nc1ccc(-c2nnc(SCC(=O)Nc3ccccc3[N+](=O)[O-])o2)cc1	> 100		> 100	> 100			> 100	> 100	> 100										
O=C(/C=C/c1cccs1)c1ccsc1	> 100		40.5	73.6	> 100	36.3	57.6	> 100	> 100	34.9									
NCCCn1c2c(c3ccc([N+](=O)[O-])cc3c1=O)C(=O)c1cc3c(cc1-2)OCO3		1.76	0.201	> 100			1.14				0.164	0.0282	0.478	0.0228	0.32				
CC1=CC(=O)c2cccc(NC3=NCCO3)c21	> 100		> 100	> 100		> 100	> 100	> 100	> 100	> 100									
O=C(c1ccc(Cl)cc1)N(C(=S)N1CCN(c2ccccn2)CC1)c1ccccc1	> 100		> 100	> 100			> 100	> 100	> 100										
CC(=O)OCC1OC(OCC2OC(N3C(=S)N[C@H]([C@@H](O)[C@H](O)[C@H](O)CO)[C@H]3O)C(OC(C)=O)C(OC(C)=O)C2OC(C)=O)C(OC(C)=O)C(OC(C)=O)C1OC(C)=O (some centres not stated)	> 100		> 100		> 100	> 100	> 100	> 100	> 100	> 100									
Oc1[nH]c2ccccc2c1N=NC(=S)N1CCCCCC1	6.57		10	2.35	10.9	22.7	8.51	3.91	4.79	7.1									
Oc1c(I)cc(I)cc1CNCCCN(Cc1ccccn1)Cc1ccccn1	3.82		2.79	1.65	3.59		3.22	2.31	2.18	1.91		1.13	0.866	1.16	1.01	1.32	0.983	1.2	1.02
C=C(C)CC1=C(C(=S)NCCO[Si](C)(C)C(C)(C)C)C(OCC)(OCC)C1=O	36.9		47.5	31.3	35.9	43.2	40.5	34.3	41.4										
C=CCC1NCCC2=C1C(S(=O)(=O)c1ccc(C)cc1)c1ccccc12 (configuration not stated)	29.2		27.8	23.3	22	20.2	36.4	25.7	33.2	3.6									
CC(=O)c1ccc2c(c1)oc(=O)n2CCN(C)C		> 100	> 100	> 100	> 100		> 100		> 100										
O=C(NCCO)c1c(O)c2ccccc2[nH]c1=O	> 100	> 100	> 100	> 100	> 100	> 100	> 100	> 100		> 100									
O=C(CCc1cc(O)cc(O)c1)NCCc1ccc(O)c(O)c1	> 100	> 100	> 100	> 100	> 100	> 100	> 100		> 100	> 100									
Cc1ccccc1NC(=S)N=Nc1c(O)[nH]c2ccccc12	> 100		> 100	> 100	> 100	> 100	> 100	> 100	> 100	> 100									
COC(=O)c1ccc(C)cc1C1CN=NC12Cc1cc(C)c(C)cc1C2=O (configuration not stated)	> 100		> 100	> 100	> 100	> 100	> 100	> 100		81.7									
Cc1cc2nc3n(c2cc1C)C(c1c(F)cccc1F)SC3 (configuration not stated)	42.4	43.7	> 10	> 10	34.2		38.2	62.2	> 100	47.8									
[N-]=[N+]=C1CNC(=O)NC1=O	> 100		> 100	> 100	> 100	> 100	> 100	> 100	> 100	> 100									
c1ccc(C(=NNc2nc3ccccc3[nH]2)c2ccccn2)nc1	> 89.9	97.9	> 100	2.64		> 100	> 100	> 100	0.828	28.6									
CCC(=N\NC(N)=S)/C(C)=N/O	> 100		> 100	> 100	> 100	> 100	> 100	> 100	> 100	> 100									
CC(C)(C)OC(=O)NC(CCCCNC(=O)OCc1ccccc1)C(=O)NC(CCCCNC(=O)OCc1ccccc1)C(=O)ON1C(=O)CCC1=O (configuration not stated)	> 100	> 100	> 100	> 100	> 100	> 100	> 100			> 100									
C[C@]12CCC(=O)C=C1CC[C@@H]1[C@@H]2C(=O)C[C@@]2(C)[C@H]1CC[C@]2(O)C(=O)CO	> 100		> 100	> 100			> 100	> 100	> 100	> 100									
Cc1cc(NC2=NCCO2)c2c(c1C)CCCC2	> 100		49.6	> 100	31		> 100	> 100	> 100	29									
